# Data as given in a melting point compilation (Tetko et al.; mined from patent text by program, amines drawn as free bases though some values may be those of a salt).
row,SMILES,melting point
1,O=c1[nH]c2ccccc2n1CCN1CCC(Cc2c[nH]c3ccc(F)cc23)CC1,220 °C
2,Cc1ccc(-n2c(=O)[nH]c3ccccc3c2=O)cc1,267 °C
3,O=C=Nc1ccc(S(=O)(=O)Cl)cc1,50 to 52 °C
4,CCC(CC)Nc1cc(C)nc(Nc2c(C)cc(C)cc2C)c1N,213 to 216 °C
5,Nc1sc2c(c1C(=O)c1ccc3ccccc3c1)CCC(Cc1ccc([N+](=O)[O-])cc1)C2 (stereo not given),76 to 78 °C
6,CN1C(=O)C2C3C=CC(CC3)C2S1=O (stereo not given),118 to 120 °C
7,O=C(O)CC(Cc1ccccc1)NC(=O)C1Cc2ccccc2N1S(=O)(=O)c1ccc(-c2cccc(C(F)(F)F)c2)cc1 (stereo not given),78 to 82 °C
8,OCC1OC(n2cnc3c(NC4CCCC4O)ncnc32)C(O)C1O (stereo not given),163 to 164 °C
9,Cc1cn(-c2cc(NC(=O)c3cccc(Nc4nccc(-c5cccnc5)n4)c3)cc(C(F)(F)F)c2)cn1,264 to 266 °C
10,C#CCOc1ccc2nc(N)c3nc4n(c3c2c1)C(C)COC4 (stereo not given),184 to 186 °C
11,CCC1Oc2cccc3nc4c(c(c23)NC1=O)CCCC4 (stereo not given),182 to 183 °C
12,COc1cc(N)c(SC)cc1OC,72 to 74 °C
13,Cc1nc2cccc(S(=O)(=O)n3c(COC(C)(C)C(=O)O)cc4cc(Cl)ccc43)c2s1,128 to 130 °C
14,CCc1nc2c(C)cc(C)nc2n1Cc1ccc(C(c2ccccc2C)C(C(=O)O)C(=O)O)cc1 (stereo not given),160 to 161 °C
15,CC(C)CCCC(C)C1CCC2C3CC=C4CC(OCCCCCCN5C(=O)c6ccccc6C5=O)CCC4(C)C3CCC12C (stereo not given),80 °C
16,CC(CCCC(C)(C)O)C1CCC2C3CC=C4CC(O)CCC4(C)C3CCC12C (stereo not given),168 to 175 °C
17,COc1ccc(N2CCN(c3c(C)c(C)c4c(c3C)C(c3ccc(C)cn3)C(C)(C)O4)CC2)cc1 (stereo not given),186 to 187 °C
18,CC(C)(C)OC(=O)N[C@@H](Cc1ccccc1)C(=O)NC1CCC(Nc2cccc3c2C(=O)c2ccccc2C3=O)CC1 (stereo not given in full),142 °C
19,OCCCCCCC1CCC2C(C=CC3=CCCc4c3n2c2ccncc42)C1 (stereo not given),101 to 102 °C
20,CS(=O)(=O)Nc1c(C(=O)c2cccc(Br)c2)[nH]c2cc(Cl)ccc12,184 to 185 °C
21,O=C(Nc1ccc2ccc(Cl)nc2n1)C1=CSCCS1,237 °C
22,CCc1cc(Nc2ccc(-c3ccccc3C#N)cc2)n2nccc2n1,247 to 248 °C
23,COc1ccc(C2=C(c3c4n(c5ccccc35)CCC(CN)C4)C(=O)NC2=O)cc1 (stereo not given),195 to 196 °C
24,COc1cccc2c1C(=O)N1CCC[C@H]1c1c(C(=O)OC(C)(C)C)ncn1-2,200 to 201 °C
25,COc1cc(/C=C/c2ccc(N)cc2)cc(OC)c1OC,251 to 253 °C

row,SMILES,melting point
1,Nc1ccc2ccc(OCCN3CCOCC3)nc2n1,164 °C
2,O=C(Cn1c(-c2ccc(Cl)cc2)nc2cccnc21)c1ccccc1,211 to 212 °C
3,COc1cc(N)c(C(N)=O)c(OC)c1,117 to 119 °C
4,Nc1cc(-c2ccncc2)cc2nc(-c3ccco3)nn12,294 to 296 °C
5,CCOc1cc(-c2cc(C(F)(F)F)n3ncc(C(=O)Nc4cccc(S(C)(=O)=O)c4)c3n2)ccc1C(F)(F)F,215 °C
6,O=C1CCC(N2Cc3c(OCc4ccc(CN5CCc6ncccc6C5)cc4)cccc3C2=O)C(=O)N1 (stereo not given),163 to 165 °C
7,CC(C)(C)OC(=O)N1C[C@H]2[C@@H](C1)C(c1ccccc1)(c1ccccc1)CC[C@@H]2O,190 °C
8,CN(c1cccc2cc(C3=NCC(C)(CCO)S3)[nH]c12)S(=O)(=O)c1cccs1 (stereo not given),149 to 150 °C
9,Cc1cc(-n2cc(I)nc2C)ccc1[N+](=O)[O-],146 to 148 °C
10,O=C1N(Cc2ccccn2)c2ccccc2C12COc1cc3[nH]ncc3cc12 (stereo not given),117 to 119 °C
11,O=C(O)C(CSc1nc2ccccc2[nH]1)CS(=O)(=O)c1ccc(-c2ccc(Cl)cc2)cc1 (stereo not given),176 to 179 °C
12,Cc1cc(C)cc(NC(=O)c2cc(Br)ccc2O)c1,188 to 190 °C
13,Cc1c(-c2cc([N+](=O)[O-])c(F)cc2F)ncnc1C(F)F,85 to 86 °C
14,COC(=O)Cc1ccccc1OCc1cc(OCCc2nc(-c3ccccc3)sc2C)no1,80 to 81 °C
15,CCCC(Oc1ccccc1Br)C(=O)O (stereo not given),63 °C
16,COc1ccc(Br)c2c1C1C(=O)NC(=O)C1CC2 (stereo not given),191 to 193 °C
17,CN(C)c1ccc(/C=C/c2c(F)cccc2F)c(N)c1,97 to 98 °C
18,N#Cc1cc(CC(=O)O)cc2c1NC(C(F)(F)F)CC2 (stereo not given),148 to 149 °C
19,CCOC(=O)c1cn(C2CC2)c2oc(CN3CCOCC3)cc2c1=O,196 to 198 °C
20,CCC(OC)(c1ccc(OCc2cc3ccccc3[nH]c2=O)c(OC)c1)c1nccs1 (stereo not given),170 to 171 °C
21,Cc1nn(-c2ccccn2)c2nc3ccccc3c(C(N)=O)c12,> 300 °C
22,COc1ccc(C2Sc3cc(Oc4ccccc4)ccc3NC(=O)C2O)cc1Cl (stereo not given),262 to 264 °C
23,CSc1c(C=NO)c(=O)n(C)c(=O)n1C,165 °C
24,Cc1ccccc1-n1ccc2c(=O)[nH]c3c(C)cccc3c21,226 to 232 °C
25,COc1ccc(C2CCC(c3ccc4ccccc4c3)O2)cc1OC (stereo not given),74 to 77 °C
